As a reminder, the EC50 is the concentration needed to bring the measured effect to its halfway point.

Twelve compounds from US20110117081A1, “FUNCTIONALIZED PYRROLIDINES AND USE THEREOF AS IAP INHIBITORS” (priority 2008, published 2011) can be followed below.

A value given as a limit tells only on which side of the number the result lay.

This assay deals with Colorectal carcinoma HCT116 cells. The experiment in a line: HCT116 + ETR1 cell viability assay (MTT). The assay is classed as cell-based. Particulars: with ETR1 (40 ng/ml), 72 hrs. The method, then: Colorectal carcinoma HCT116 cells (ATCC# CCL-247) were cultured as monolayers in 96 well plates at a density of 2000 cells per well in 100 ul of McCoy's 5a medium (HyClone) supplemented with 2.2 g/L sodium bicarbonate (Gibco), 10% FBS (HyClone) and 1% penecillin/streptomycin (HyClone) for 24 hours. Triplicate wells of cells were treated for 72 hrs at 37° C. (5% CO2) with 50 ul of HGS agonistic Trail receptor antibody, ETR1 (40 ng/ml) in combination with 50 ul of diluted compound (0.01 to 10000 nM). Metabolic viability of remaining cells was assessed by MTT assay.
The percentage viability of compound-treated cells was expressed as a fraction of the absorbance/luminescence signal obtained from non-treated cells. EC50 values (corresponding to 50% cell survival in the presence of compound as compared to untreated controls) were calculated from MTT survival curves (HCT116 and SKOV3) using BioAssay software (CambridgeSoft) and from Cell Titer-Glo survival curves (synovioycte and Jurkat cells) using GraphPad Prism (Graph Pad Software Inc.). In the below chart, EC50 values are summarized as follows: a=EC50 of less than 10 nM; b=EC50 of 10-100 nM; and c=EC50 of greater than 100 nM.
As to `CN[C@@H](C)C(=O)N[C@H](C(=O)N1C[C@@H](NC(=O)c2ccc(C(=O)N[C@H]3C[C@@H](C(=O)N[C@@H]4CCCc5ccc(F)cc54)N(C(=O)[C@@H](NC(=O)[C@H](C)NC)C4CCCCC4)C3)cc2)C[C@H]1C(=O)N[C@@H]1CCCc2ccc(F)cc21)C1CCCCC1` [Compound 33], the EC50 was less than 10 nM.
Under `CN[C@@H](C)C(=O)N[C@H](C(=O)N1C[C@@H](NC(=O)c2ccc(C(=O)N[C@H]3C[C@@H](C(=O)N[C@H](C)c4ccc(OC)cc4)N(C(=O)[C@@H](NC(=O)[C@H](C)NC)C4CCCCC4)C3)cc2)C[C@H]1C(=O)N[C@H](C)c1ccc(OC)cc1)C1CCCCC1` [Compound 34] stands less than 10 nM; under `CN[C@@H](C)C(=O)N[C@H](C(=O)N1C[C@@H](NC(=O)c2ccc(C(=O)N[C@H]3C[C@@H](C(=O)N4CCc5ccccc5C4)N(C(=O)[C@@H](NC(=O)[C@H](C)NC)C4CCCCC4)C3)cc2)C[C@H]1C(=O)N1CCc2ccccc2C1)C1CCCCC1` [Compound 35], 10 to 100 nM; under `CN[C@@H](C)C(=O)N[C@H](C(=O)N1C[C@@H](NC(=O)c2ccc(C(=O)N[C@H]3C[C@@H](C(=O)N[C@@H]4CCOc5cc(F)ccc54)N(C(=O)[C@@H](NC(=O)[C@H](C)NC)C4CCCCC4)C3)cc2)C[C@H]1C(=O)N[C@@H]1CCOc2cc(F)ccc21)C1CCCCC1` [Compound 36], less than 10 nM.
The same measure for `CN[C@@H](C)C(=O)N[C@H](C(=O)N1C[C@@H](NC(=O)c2ccc(C(=O)N[C@H]3C[C@@H](C(=O)NC(C)(C)c4ccccc4)N(C(=O)[C@@H](NC(=O)[C@H](C)NC)C4CCCCC4)C3)cc2)C[C@H]1C(=O)NC(C)(C)c1ccccc1)C1CCCCC1` [Compound 37]: less than 10 nM.
`CN[C@@H](C)C(=O)N[C@H](C(=O)N1C[C@@H](NC(=O)c2ccc(C(=O)N[C@H]3C[C@@H](C(=O)NCc4ccc(F)cc4)N(C(=O)[C@@H](NC(=O)[C@H](C)NC)C4CCCCC4)C3)cc2)C[C@H]1C(=O)NCc1ccc(F)cc1)C1CCCCC1` [Compound 38]: the EC50 was less than 10 nM.
Under `CN[C@@H](C)C(=O)N[C@H](C(=O)N1C[C@@H](NC(=O)c2ccc(C(=O)N[C@H]3C[C@@H](C(=O)N4CC[C@H](c5ccccc5)C4)N(C(=O)[C@@H](NC(=O)[C@H](C)NC)C4CCCCC4)C3)cc2)C[C@H]1C(=O)N1CC[C@H](c2ccccc2)C1)C1CCCCC1` [Compound 39] stands 10 to 100 nM; under `CN[C@@H](C)C(=O)N[C@H](C(=O)N1C[C@@H](NC(=O)c2ccc(C(=O)N[C@H]3C[C@@H](C(=O)N[C@@H]4CCCc5cc(F)ccc54)N(C(=O)[C@@H](NC(=O)[C@H](C)NC)C4CCCCC4)C3)cc2)C[C@H]1C(=O)N[C@@H]1CCCc2cc(F)ccc21)C1CCCCC1` [Compound 40], less than 10 nM; under `CN[C@@H](C)C(=O)N[C@H](C(=O)N1C[C@@H](NC(=O)c2ccc(C(=O)N[C@H]3C[C@@H](C(=O)N[C@H](C)c4ccc(F)cc4)N(C(=O)[C@@H](NC(=O)[C@H](C)NC)C4CCOCC4)C3)cc2)C[C@H]1C(=O)N[C@H](C)c1ccc(F)cc1)C1CCOCC1` [Compound 42], 10 to 100 nM.
Under `CN[C@@H](C)C(=O)N[C@H](C(=O)N1C[C@@H](NC(=O)c2ccc(C(=O)N[C@H]3C[C@@H](C(=O)N[C@@H]4CCCc5ccccc54)N(C(=O)[C@@H](NC(=O)[C@H](C)NC)C4CCCC4)C3)cc2)C[C@H]1C(=O)N[C@@H]1CCCc2ccccc21)C1CCCC1` [Compound 43] stands less than 10 nM; under `CN[C@@H](C)C(=O)N[C@H](C(=O)N1C[C@@H](NC(=O)c2ccc(C(=O)N[C@H]3C[C@@H](C(=O)N[C@@H]4CCCc5ccccc54)N(C(=O)[C@@H](NC(=O)[C@H](C)NC)C4CCC4)C3)cc2)C[C@H]1C(=O)N[C@@H]1CCCc2ccccc21)C1CCC1` [Compound 44], less than 10 nM.
Under `CN[C@@H](C)C(=O)N[C@H](C(=O)N1C[C@@H](NC(=O)c2ccc(C(=O)N[C@H]3C[C@@H](C(=O)Nc4ccccc4-c4ncccn4)N(C(=O)[C@@H](NC(=O)[C@H](C)NC)C4CCCCC4)C3)cc2)C[C@H]1C(=O)Nc1ccccc1-c1ncccn1)C1CCCCC1` [Compound 45] stands 10 to 100 nM.
